The term IC50 denotes the concentration that gives 50% inhibition. By viability, T/C is commonly meant the ratio of treated to control.

Structures are written as SMILES. “And” between values parts separate entries of the source, which are not always exact repeats. Equal entries are not always repeated. Some results are limits rather than exact numbers.

In the test the test system is MPNST complex spheroid with HUVEC/MSC, growth, % test/control. Description: Anticancer human tumor MPNST cell line growth inhibition [Asc].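 On all read-outs here: compounds left on spheroids for seven days before reading.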 Particulars: for viability, T/C: stronger effect = lower value. The method, boiled down: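 Complex spheroids combining tumor cells with HUVEC endothelial cells and human MSCs, at 37 degrees C, 5% CO2; agents tested alone or combined, half-log dilutions from at or near clinical Cmax, or 10 microM if Cmax unknown.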

The mark [1] stands for this setting: curve of first compound, second compound 0.03 µM.
The mark [2] stands for this setting: curve of first compound, second compound 0.0949 µM.
The mark [3] stands for this setting: curve of first compound, second compound 0.3 µM.
Setting [4] is: curve of first compound, second compound 0.949 µM.
The mark [5] stands for this setting: curve of first compound, second compound 3 µM.
The mark [6] stands for this setting: second compound 0.03 µM, first compound 0.0316 µM.
[7] abbreviates: second compound 0.03 µM, first compound 0.1 µM.
[8] abbreviates: second compound 0.03 µM, first compound 0.316 µM.
Setting [9] is: second compound 0.03 µM, first compound 1 µM.
Where [10] appears, read: second compound 0.03 µM, first compound 3.16 µM.
Setting [11] is: second compound 0.03 µM, first compound 10 µM.
The mark [12] stands for this setting: second compound 0.0949 µM, first compound 0.0316 µM.
Where [13] appears, read: second compound 0.0949 µM, first compound 0.1 µM.
[14] abbreviates: second compound 0.0949 µM, first compound 0.316 µM.
Where [15] appears, read: second compound 0.0949 µM, first compound 1 µM.
Setting [16] is: second compound 0.0949 µM, first compound 3.16 µM.
The mark [17] stands for this setting: second compound 0.0949 µM, first compound 10 µM.
Setting [18] is: second compound 0.3 µM, first compound 0.0316 µM.
[19] abbreviates: second compound 0.3 µM, first compound 0.1 µM.
The mark [20] stands for this setting: second compound 0.3 µM, first compound 0.316 µM.
[21] abbreviates: second compound 0.3 µM, first compound 1 µM.
Setting [22] is: second compound 0.3 µM, first compound 3.16 µM.
[23] abbreviates: second compound 0.3 µM, first compound 10 µM.
[24] abbreviates: second compound 0.949 µM, first compound 0.0316 µM.
The mark [25] stands for this setting: second compound 0.949 µM, first compound 0.1 µM.
[26] abbreviates: second compound 0.949 µM, first compound 0.316 µM.
The mark [27] stands for this setting: second compound 0.949 µM, first compound 1 µM.
The mark [28] stands for this setting: second compound 0.949 µM, first compound 3.16 µM.
The mark [29] stands for this setting: second compound 0.949 µM, first compound 10 µM.
[30] abbreviates: second compound 3 µM, first compound 0.0316 µM.
Where [31] appears, read: second compound 3 µM, first compound 0.1 µM.
[32] abbreviates: second compound 3 µM, first compound 0.316 µM.
Setting [33] is: second compound 3 µM, first compound 1 µM.
Setting [34] is: second compound 3 µM, first compound 3.16 µM.
The mark [35] stands for this setting: second compound 3 µM, first compound 10 µM.

Take `C=C(F)C(=O)N1CCN(c2nc(OCC3CCCN3C)nc3c2CCN(c2cccc4cccc(Cl)c24)C3)CC1CC#N` (stereo unspecified) + CCN1C(C(=O)NC23CCC(C(=O)O)(CC2)CC3)C(c2cccc(Cl)c2F)C2(C(=O)Nc3cc(Cl)ccc32)C12CCCCC2: the IC50 was above 10000 nM under setting [1]; above 10000 nM under setting [2]; above 10000 nM under setting [3]; above 10000 nM under setting [4]; 3890 nM under setting [5]. Further, the viability, T/C runs as follows: under setting [6], 56.3%; under setting [7], 61.1%; under setting [8], 65.2%; under setting [9], 63.1%; under setting [10], 72.9%; under setting [11], 65.6%. Also, the viability, T/C is 87.5% under setting [12]; 59% under setting [13]; 77.5% under setting [14]; 75.6% under setting [15]; 67% under setting [16]; 66.2% under setting [17]. Besides, the viability, T/C reads like this: under setting [18], 92.4%; under setting [19], 85.3%; under setting [20], 106%; under setting [21], 63.6%; under setting [22], 82.8%; under setting [23], 68.8%. Besides, the viability, T/C by setting is: under setting [24], 88.5%; under setting [25], 80.3%; under setting [26], 97.5%; under setting [27], 62.1%; under setting [28], 55.4%; under setting [29], 57%. Further, the viability, T/C is 84.8% under setting [30]; 74.8% under setting [31]; 73% under setting [32]; 60.8% under setting [33]; 50.8% under setting [34]; 42.7% under setting [35].
Turning to `CCN1C(C(=O)NC23CCC(C(=O)O)(CC2)CC3)C(c2cccc(Cl)c2F)C2(C(=O)Nc3cc(Cl)ccc32)C12CCCCC2` (stereo unspecified), for the setting “compound 0.00949 µM”, the viability, T/C was 86.6% and 74.5%. Further, the IC50 reads like this: (compound alone, run of 10/11/2022) above 3000 nM; (curve of compound) 1810 nM and > 3000 nM.
Regarding `O=C(c1ccc(F)c(F)c1Nc1ccc(I)cc1F)N1CC(O)([C@@H]2CCCCN2)C1`, the viability, T/C was 100% and 84.6% and 73.2% (compound 0.00316 µM); 60.5% and 110% and 78.5% (compound 0.01 µM); 58.9% and 123% and 126% (compound 0.0316 µM); 65.1% and 103% and 84.6% (compound 0.1 µM); 67.3% and 72% and 85.4% (compound 0.316 µM); 13.1% and 29.3% and 32.3% (compound 1 µM). Also, the IC50 (curve of compound) was 448 nM and 572 nM and 682 nM.
As for `CNC(C)C(=O)NC1CN(S(=O)(=O)c2cccc(S(=O)(=O)N3CCC4CCC(C(=O)NC(c5ccccc5)c5ccccc5)N4C(=O)C(NC(=O)C(C)NC)C3)c2)CCC2CCC(C(=O)NC(c3ccccc3)c3ccccc3)N2C1=O` (stereo unspecified), where the note is “curve of compound”, the IC50 is above 1000 nM.
Turning to `O=C(c1ccc(F)c(F)c1Nc1ccc(I)cc1F)N1CC(O)([C@@H]2CCCCN2)C1` + Cc1c(S(C)(=O)=O)c(-c2cc(F)cc(N3CCN(c4ccc(NS(=O)(=O)c5ccc(NC(CCN6CCC(C(=O)OCCCP(=O)(O)O)CC6)CSc6ccccc6)c(S(=O)(=O)C(F)(F)F)c5)cc4)CC3)c2)c(-c2ccc(Cl)cc2)n1C(C)C, the IC50 is 303 nM (curve of first compound, second compound 0.1 µM); 336 nM (curve of first compound, second compound 0.316 µM); 259 nM (curve of first compound, second compound 1 µM); 240 nM (curve of first compound, second compound 3.16 µM); 181 nM (curve of first compound, second compound 10 µM). Also, the viability, T/C runs as follows: (second compound 0.1 µM, first compound 0.00316 µM) 62.2%; (second compound 0.1 µM, first compound 0.01 µM) 69.7%; (second compound 0.1 µM, first compound 0.0316 µM) 77.1%; (second compound 0.1 µM, first compound 0.1 µM) 95.3%; (second compound 0.1 µM, first compound 0.316 µM) 49%; (second compound 0.1 µM, first compound 1 µM) 22.4%. Also, the viability, T/C is 83% (second compound 0.316 µM, first compound 0.00316 µM); 80.3% (second compound 0.316 µM, first compound 0.01 µM); 107% (second compound 0.316 µM, first compound 0.0316 µM); 106% (second compound 0.316 µM, first compound 0.1 µM); 51.9% (second compound 0.316 µM, first compound 0.316 µM); 16.5% (second compound 0.316 µM, first compound 1 µM). For the same molecule, the viability, T/C reads like this: (second compound 1 µM, first compound 0.00316 µM) 82.9%; (second compound 1 µM, first compound 0.01 µM) 80.6%; (second compound 1 µM, first compound 0.0316 µM) 106%; (second compound 1 µM, first compound 0.1 µM) 77%; (second compound 1 µM, first compound 0.316 µM) 44.3%; (second compound 1 µM, first compound 1 µM) 13.2%. Moreover, the viability, T/C is 86.2% (second compound 3.16 µM, first compound 0.00316 µM); 90.3% (second compound 3.16 µM, first compound 0.01 µM); 80.7% (second compound 3.16 µM, first compound 0.0316 µM); 110% (second compound 3.16 µM, first compound 0.1 µM); 36.6% (second compound 3.16 µM, first compound 0.316 µM); 14.5% (second compound 3.16 µM, first compound 1 µM). The viability, T/C by setting is: (second compound 10 µM, first compound 0.00316 µM) 86.3%; (second compound 10 µM, first compound 0.01 µM) 81.9%; (second compound 10 µM, first compound 0.0316 µM) 82.5%; (second compound 10 µM, first compound 0.1 µM) 72.8%; (second compound 10 µM, first compound 0.316 µM) 28.8%; (second compound 10 µM, first compound 1 µM) 8.55%.
In the case of `C=CC(=O)N1CCN(c2nc(=O)n(-c3c(C)ccnc3C(C)C)c3nc(-c4c(O)cccc4F)c(F)cc23)C(C)C1` (stereo unspecified) + CCN1C(C(=O)NC23CCC(C(=O)O)(CC2)CC3)C(c2cccc(Cl)c2F)C2(C(=O)Nc3cc(Cl)ccc32)C12CCCCC2, the IC50 under setting [1] is above 10000 nM; the IC50 under setting [2] is above 10000 nM; the IC50 under setting [3] was above 10000 nM; the IC50 under setting [4] is above 10000 nM; the IC50 under setting [5] was above 10000 nM. The viability, T/C is, setting by setting: under setting [6], 62.4%; under setting [7], 76.1%; under setting [8], 73.3%; under setting [9], 87.7%; under setting [10], 106%; under setting [11], 108%. For the same molecule, the viability, T/C is 84.9% under setting [12]; 85.3% under setting [13]; 99.8% under setting [14]; 103% under setting [15]; 98.8% under setting [16]; 124% under setting [17]. In addition, the viability, T/C was 75.7% under setting [18]; 85.3% under setting [19]; 93.6% under setting [20]; 94.5% under setting [21]; 90.2% under setting [22]; 101% under setting [23]. The viability, T/C reads like this: under setting [24], 77.7%; under setting [25], 71%; under setting [26], 90.6%; under setting [27], 77.7%; under setting [28], 81%; under setting [29], 117%. Further, the viability, T/C under setting [30] is 85.9%; the viability, T/C under setting [31] is 76.5%; the viability, T/C under setting [32] was 59%; the viability, T/C under setting [33] was 75.8%; the viability, T/C under setting [34] was 79.8%; the viability, T/C under setting [35] was 89.1%.

(Values after PubChem BioAssay AID1963442 (Molecular Pharmacology Branch, DTP, NCI, 2024).)
